Laboratory results reported in patent US20240391923A1, “METHIONINE ADENOSYLTRANSFERASE 2A INHIBITOR FOR TREATING MTAP DELETION-TYPE CANCER” (SUZHOU GENHOUSE BIO CO., LTD., priority 2022, published 2024).
Where two headings read alike, the source gives them in different places.

Columns and labels:
[1] = test system: HCT116-MTAP wild-type (+/+)-cell strain; assay: Tumor cell proliferation inhibition assay (CellTiter-Glo), HCT116-MTAP wild-type (+/+); type: cell-based; settings: Homo sapiens, 120 h, HCT116-MTAP wild-type (+/+) cells, 5-day treatment
Experimental: (§1) After the HCT116-MTAP-knockout (−/−) cell strain, the HCT116-MTAP wild-type(+/+)-cell strain, the DOHH-2 cell strain, or the Hut-78 cell strain was treated with the test compound for 5 days, the ATP level was measured using a CellTiter-Glo kit of Promega to evaluate the inhibition of the test compound against the growth of the tumor cell strain.
(§2) In the present application, the HCT116-MTAP-knockout (−/−) cell strain, the HCT116-MTAP wild-type (+/+)-cell strain, the DOHH-2 cell strain, or the Hut-78 cell strain was seeded into a 96-well cell culture plate at an appropriate cell density. After 24 h, the cells were treated using the test compounds diluted 1:3 fold at the highest concentration of 10 μM for 10 gradients, and a DMSO treatment group was set up separately. The cells were cultured in a 37° C./5% CO2 incubator for 5 days.

[2] = test system: SDMA in HCT116-MTAP-knockout cell line; assay: Cell symmetric dimethylarginine (SDMA) test, In-cell Western, HCT116-MTAP-knockout; type: cell-based; settings: Homo sapiens, 96 h
[3] = test system: HCT116-MTAP-knockout (−/−) cell strain; assay: Tumor cell proliferation inhibition assay (CellTiter-Glo), HCT116-MTAP-knockout (-/-); type: cell-based; settings: Homo sapiens, 120 h, HCT116-MTAP-knockout (−/−) cells, 5-day treatment
Experimental: as §1, §2

[4] = test system: SDMA in human colon cancer cell line HCT116; assay: Cell symmetric dimethylarginine (SDMA) test, In-cell Western, HCT116 (MTAP wild-type); type: cell-based; settings: Homo sapiens, HCT-116, 96 h
Text: MAT2A catalyzes the reaction of L-methionine and ATP to generate SAM, inorganic phosphonic acid, and inorganic diphosphonic acid. SAM is an important methyl donor, and is a substrate of arginine methyltransferase 5 (PRMT5). PRMT5 catalyzes SDMA modification of multiple proteins within a cell. The intracellular SDMA modification level was detected by ICW (In-cell Western), and the inhibition of the test compound on the enzymatic activity of intracellular MAT2A was indirectly reflected.
In the present application, the human colon cancer cell line HCT116 and the corresponding HCT116-MTAP-knockout cell line were seeded into a 96-well cell culture plate at an appropriate cell density. After 24 h, the cells were treated using the test compounds diluted 1:4 fold at the highest concentration of 6 μM for 6 gradients, and a DMSO treatment group was set up separately. The cells were cultured in a 37° C./5% CO2 incubator for 4 days. To test the inhibitory activity of the test compounds against tumor cell SDMA, the medium was discarded, and the plate was washed 3 times with PBST. 4% paraformaldehyde was then used at room temperature for fixation for 20 min. The fixation solution was discarded, the plate was washed 3 times with PBST, and a special blocking solution was added to each well for blocking at room temperature for 2 h. The blocking solution was discarded. After the plate was washed 3 times with PBST, the plate was incubated with SDMA antibody at 4° C. overnight. The next day, the plate was washed 3 times with PBST. The secondary antibody and DRAQ5 were diluted to an appropriate concentration with the blocking solution, and incubated at room temperature for 2 h; the plate was washed 3 times with PBST, and the fluorescence signals at 700 nm and 800 nm were detected using a Li—COR Odyssey two-color near-infrared laser imager.
The data was then processed. After the corresponding background value was subtracted from each well, statistical analysis was performed on the 800 nm/700 nm ratio for each well, a sigmoidal dose-inhibition curve was plotted using a non-linear regression model, and IC50 values were fitted and calculated. Inhibition Rate (%)=(1−SDMA dose/SDMA DMSO control)*100. SDMA dose is the value of the drug treatment group, and SDMA DMSO control is the value of the DMSO control group.

[5] = target: MAT2A recombinant protein (Homo sapiens, UniProt P31153); assay: MAT2A inhibitory activity (malachite green colorimetric enzyme assay); type: biochemical
MAT2A recombinant protein, sequence (P31153 whole entry): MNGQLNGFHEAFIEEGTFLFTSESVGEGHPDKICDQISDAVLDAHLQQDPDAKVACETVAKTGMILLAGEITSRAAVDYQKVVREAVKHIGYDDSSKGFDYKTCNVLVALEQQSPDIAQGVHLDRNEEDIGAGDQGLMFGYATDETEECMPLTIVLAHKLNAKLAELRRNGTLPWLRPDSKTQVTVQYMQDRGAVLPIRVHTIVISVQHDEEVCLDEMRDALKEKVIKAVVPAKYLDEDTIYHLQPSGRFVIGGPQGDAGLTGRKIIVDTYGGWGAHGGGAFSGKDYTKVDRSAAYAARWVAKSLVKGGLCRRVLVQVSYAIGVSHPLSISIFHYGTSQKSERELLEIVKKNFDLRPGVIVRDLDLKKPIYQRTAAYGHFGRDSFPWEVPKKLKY
Text: MAT2A catalyzes the reaction of L-methionine and ATP to generate S-adenosylmethionine (SAM), inorganic phosphonic acid, and inorganic diphosphonic acid. Malachite green reacts with inorganic phosphonic acid to generate a green product, and the enzyme activity of MAT2A can be indirectly reflected by detecting the content of the inorganic phosphonic acid in a sample.
The test compounds were formulated using DMSO and diluted 1:3 diluted through 10 concentration points to give a final starting concentration in the reaction system of 1000 nM. The test compounds at different concentrations described above were transferred to a 384-well plate. Experimental buffer (50 mM HEPES pH 7.5, 50 mM KCl, 10 mM MgCl2, 10 mM DTT) was prepared. 2×MAT2A recombinant protein was prepared using the buffer and added to a 384-well plate. A mixed solution of 2×L-methionine and ATP was prepared using the buffer, and added to a 384-well plate. The enzymatic reaction was started, and the reaction was carried out at room temperature for 60 min. 20 μL of a colorimetric detection reagent was added to the above system, and incubated at room temperature for 15 min. The absorbance at 630 nm was measured. The inhibition rate of the compound on the enzyme activity was calculated, and the inhibition rate value and the logarithm value of the compound concentration were fitted using non-linear regression (dose response-variable slope) to give the IC50 value of the test compound.

[6] = IC50 score, read-out: Tumor cell 5-day relative growth inhibition (HCT116-MTAP+/+) (nM), score
[7] = IC50 value, read-out: Tumor cell 5-day relative growth inhibition (HCT116-MTAP+/+)
[8] = IC50 score class, read-out: Cell 96 h SDMA Inhibition (HCT116-MTAP−/−) (score)
[9] = read-out: Cell 96 h SDMA Inhibition (HCT116-MTAP−/−)
[10] = IC50 score, read-out: Tumor cell 5-day relative growth inhibition (HCT116-MTAP−/−) (nM), score
[11] = IC50 value, read-out: Tumor cell 5-day relative growth inhibition (HCT116-MTAP−/−)
[12] = IC50 score class, read-out: Cell 96 h SDMA Inhibition (HCT116-MTAP+/+) (score)
[13] = read-out: Cell 96 h SDMA inhibition (HCT116-MTAP+/+)
[14] = IC50 score class, read-out: MAT2A Inhibition (score)

Row | SMILES | IC50 [1, 6] [nM] | IC50 [1, 7] [nM] | IC50 [2, 8] [nM] | IC50 [2, 9] [nM] | IC50 [3, 10] [nM] | IC50 [3, 11] [nM] | IC50 [4, 12] [nM] | IC50 [4, 13] [nM] | IC50 [5, 14] [nM] | IC50 ([5]; read-out: MAT2A Inhibition) [nM]
1 | Cn1cc2c(n1)c(=O)n(-c1cccnc1C(F)(F)F)c1cc(Cl)c(F)cc21 (single isomer, unassigned) [Compound B389] | ≥ 2000 | > 10000 | < 200 | 20 | < 500 | 223 | > 3000 | > 10000 |  | 
2 | Cn1cc2c(n1)c(=O)n(-c1cccnc1C(F)(F)F)c1cc(Cl)ccc21 [Compound B68] | ≥ 2000 | > 2000 | 200 to 1000 | 213 | < 500 | 41.4 | > 3000 | > 3000 | < 100 | 45.1
3 | Cn1cc2c(n1)c(=O)n(-c1cccnc1C(F)(F)F)c1nc(C(F)(F)F)ccc21 [Compound B80] | ≥ 2000 | 23300 | 200 to 1000 | 218 | < 500 | 81.7 | > 3000 | > 3000 |  | 
4 | O=c1c2n[nH]cc2c2ccc(C(F)(F)F)nc2n1-c1cccc2[nH]ncc12 [Compound B239] | < 500 | 477 | < 200 | 11 | < 500 | 50 | > 3000 | > 10000 | < 100 | 14.7
5 | O=c1c2nn(C3CC3)cc2c2ccc(C(F)(F)F)nc2n1-c1cccc2[nH]ncc12 [Compound B250] | 500 to 2000 | 939 | 200 to 1000 | 110 | < 500 | 299 | > 3000 | 3970 | < 100 | 28.1
6 | O=c1c2nn(C(F)F)cc2c2ccc(C(F)(F)F)nc2n1-c1cccnc1 [Compound B255] | ≥ 2000 | 12800 | 200 to 1000 | 222 | 500 to 2000 | 1160 | > 3000 | 3440 | < 100 | 19.7
7 | O=c1c2n[nH]cc2c2cc(F)c(Cl)cc2n1-c1cccc2[nH]ncc12 [Compound B263] | < 500 | 173 | < 200 | 3.7 | < 500 | 21 | 200 to 1000 | 687 | < 100 | 9.3
8 | CN1CCN(c2ccc(Cn3cc4c(n3)c(=O)n(-c3cccc5[nH]ncc35)c3cc(Cl)c(F)cc43)cn2)CC1 [Compound B268] | ≥ 2000 | 5240 | 1000 to 3000 | 1240 | ≥ 2000 | 3650 | > 3000 | > 10000 | < 100 | 81
9 | Cn1cc2c(n1)c(=O)n(-c1cccc3[nH]ncc13)c1cc(Cl)cnc21 [Compound B273] | ≥ 2000 | 7600 | 200 to 1000 | 517 | 500 to 2000 | 1400 |  |  | < 100 | 83
10 | Cn1cc2c(n1)c(=O)n(-c1cccc3[nH]ncc13)c1nc(C(F)(F)F)c(F)cc21 [Compound B274] | ≥ 2000 | > 10000 | 200 to 1000 | 147 | < 500 | 72.5 | 200 to 1000 | 240 | < 100 | 9
11 | Cc1n[nH]c2cccc(-n3c(=O)c4nn(C)cc4c4ccc(Cl)cc43)c12 [Compound B277] | 500 to 2000 | 875 | < 200 | 61 | < 500 | 327 |  |  | < 100 | 83
12 | CN1CCN(c2nccc(Cn3cc4c(n3)c(=O)n(-c3cccc5[nH]ncc35)c3cc(Cl)c(F)cc43)n2)CC1 [Compound B333] | 500 to 2000 | 550 | < 200 | 98.5 | < 500 | 284 | > 3000 | > 10000 | < 100 | 100
13 | Cn1cnc2c(=O)n(-c3cccnc3C3CC3)c3cc(Cl)c(F)cc3c21 [Compound B336] | ≥ 2000 | 9700 | < 200 | 18.7 | < 500 | 145 | > 3000 | > 10000 | < 100 | 12
14 | O=c1c2nn(C(F)F)cc2c2cc(F)c(Cl)cc2n1-c1cccnc1C1CC1 [Compound B337] | ≥ 2000 | > 10000 |  |  | 500 to 2000 | 579 | > 3000 | > 10000 |  | 
15 | Cn1cnc2c(=O)n(-c3cccnc3C(F)(F)F)c3cc(Cl)c(F)cc3c21 [Compound B351] | ≥ 2000 | > 10000 | < 200 | 10 | 500 to 2000 | 765 | > 3000 | > 10000 | < 100 | 26
16 | Cn1cc2c(n1)c(=O)n(-c1cccnc1C1CC1)c1nc(C3CC3)c(F)cc21 [Compound B359] | ≥ 2000 | > 10000 | < 200 | 6.2 | < 500 | 87 | > 3000 | > 10000 | < 100 | 9.6
17 | Cn1cc2c(n1)c(=O)n(-c1cccc3ccccc13)c1cc(Cl)c(F)cc21 [Compound B370] | ≥ 2000 | > 10000 | 200 to 1000 | 554 | ≥ 2000 | > 10000 | > 3000 | > 10000 | < 100 | 58
